The test system of the experiment is MV-4-11 cells. Put plainly: Gene expression microarray analysis (Affymetrix PrimeView) and GSEA. It counts as cell-based, human. More on the design: RFU PODN (11730768_x_at) / Fold change /veh PODN (11730768_x_at) / RFU LINC00158 (11744669_a_at) / Fold change /veh LINC00158 (11744669_a_at) / RFU DUSP10 (11751237_a_at) / Fold change /veh DUSP10 (11751237_a_at) / RFU ID3 (11757404_x_at) / Fold change /veh ID3 (11757404_x_at) / RFU PLEKHG5 (11737974_s_at) / Fold change /veh PLEKHG5 (11737974_s_at) / RFU LRRC4B (11730491_at) / Fold change /veh LRRC4B (11730491_at) / RFU GIMAP4 (11747438_a_at) / Fold change /veh GIMAP4 (11747438_a_at) / RFU KRT8 (11758183_x_at) / Fold change /veh KRT8 (11758183_x_at) / RFU CNN1 (11734310_a_at) / Fold change /veh CNN1 (11734310_a_at) / RFU VPS37D (11726825_at) / Fold change /veh VPS37D (11726825_at) / RFU C10orf10 (11716522_x_at) / Fold change /veh C10orf10 (11716522_x_at) / RFU KIR2DL2 /// KIR2DL4 /// KIR2DL5A /// KIR2DL5B /// KIR2DS1 /// KIR2DS2 /// KIR2DS3 /// KIR2DS4 /// KIR3DL3 /// KIR3DL3 /// KIR3DS1 (11738374_at) / Fold change /veh KIR2DL2 /// KIR2DL4 /// KIR2DL5A /// KIR2DL5B /// KIR2DS1 /// KIR2DS2 /// KIR2DS3 /// KIR2DS4 /// KIR3DL3 /// KIR3DL3 /// KIR3DS1 (11738374_at) / RFU C1QL1 (11718748_at) / Fold change /veh C1QL1 (11718748_at) / RFU TMPRSS4 (11747572_a_at) / Fold change /veh TMPRSS4 (11747572_a_at) / RFU HAMP (11756126_x_at) / Fold change /veh HAMP (11756126_x_at) / RFU RNFT2 (11725882_a_at) / Fold change /veh RNFT2 (11725882_a_at) / RFU NR4A2 (11747474_a_at) / Fold change /veh NR4A2 (11747474_a_at) / RFU ABCC12 (11746883_a_at) / Fold change /veh ABCC12 (11746883_a_at) / RFU TMEM136 (11760407_x_at) / Fold change /veh TMEM136 (11760407_x_at) / RFU CLDN22 /// WWC2 (11732394_at) / Fold change /veh CLDN22 /// WWC2 (11732394_at) / RFU HLA-DPB1 (11760878_x_at) / Fold change /veh HLA-DPB1 (11760878_x_at) / RFU SPINT1 (11716480_a_at) / Fold change /veh SPINT1 (11716480_a_at) / RFU GAP43 (11754022_s_at) / Fold change /veh GAP43 (11754022_s_at) / RFU A4GNT (11735810_at) / Fold change /veh A4GNT (11735810_at) / RFU PRB3 (11715151_x_at) / Fold change /veh PRB3 (11715151_x_at) / RFU TUBB4B (11761932_at) / Fold change /veh TUBB4B (11761932_at) / RFU CAPN14 (11732068_a_at) / Fold change /veh CAPN14 (11732068_a_at) / RFU TMCC2 (11721928_a_at) / Fold change /veh TMCC2 (11721928_a_at) / RFU IRGQ (11745062_a_at) / Fold change /veh IRGQ (11745062_a_at) / RFU FAM174B (11720279_a_at) / Fold change /veh FAM174B (11720279_a_at) / RFU TMPRSS4 (11748680_a_at) / Fold change /veh TMPRSS4 (11748680_a_at) / RFU FAM212B (11763350_a_at) / Fold change /veh FAM212B (11763350_a_at) / RFU PLEKHG5 (11743358_a_at) / Fold change /veh PLEKHG5 (11743358_a_at) / RFU ZSCAN30 (11745921_a_at) / Fold change /veh ZSCAN30 (11745921_a_at) / RFU CMKLR1 (11741424_a_at) / Fold change /veh CMKLR1 (11741424_a_at) / RFU LOC101060620 /// MAPK8IP1 (11723275_at) / Fold change /veh LOC101060620 /// MAPK8IP1 (11723275_at) / RFU SPTSSB (11747773_x_at) / Fold change /veh SPTSSB (11747773_x_at) / RFU PRSS12 (11739890_at) / Fold change /veh PRSS12 (11739890_at) / RFU BIN1 (11741810_x_at) / Fold change /veh BIN1 (11741810_x_at) / RFU WNT11 (11732464_a_at) / Fold change /veh WNT11 (11732464_a_at) / RFU C10orf10 (11716521_a_at) / Fold change /veh C10orf10 (11716521_a_at) / RFU C5orf56 (11738089_at) / Fold change /veh C5orf56 (11738089_at) / RFU CYB561 (11721691_x_at) / Fold change /veh CYB561 (11721691_x_at) / RFU ANKRD19P (11752326_a_at) / Fold change /veh ANKRD19P (11752326_a_at) / RFU OR2T12 /// OR2T33 /// OR2T8 (11738714_s_at) / Fold change /veh OR2T12 /// OR2T33 /// OR2T8 (11738714_s_at) / RFU VCAN (11748164_a_at) / Fold change /veh VCAN (11748164_a_at) / RFU JSRP1 (11732532_at) / Fold change /veh JSRP1 (11732532_at) / RFU KRTAP10-11 (11738290_x_at) / Fold change /veh KRTAP10-11 (11738290_x_at) / RFU MYO3A (11730013_a_at) / Fold change /veh MYO3A (11730013_a_at) / RFU EBF3 (11725865_a_at) / Fold change /veh EBF3 (11725865_a_at) / RFU CAMK2N1 (11719241_x_at) / Fold change /veh CAMK2N1 (11719241_x_at) / RFU C5orf56 (11738088_a_at) / Fold change /veh C5orf56 (11738088_a_at) / RFU OLFML3 (11715873_a_at) / Fold change /veh OLFML3 (11715873_a_at) / RFU LOC100653217 /// NTM (11731650_a_at) / Fold change /veh LOC100653217 /// NTM (11731650_a_at) / RFU MAPK11 (11762145_a_at) / Fold change /veh MAPK11 (11762145_a_at) / RFU FIZ1 (11724087_x_at) / Fold change /veh FIZ1 (11724087_x_at) / RFU OASL (11726364_x_at) / Fold change /veh OASL (11726364_x_at) / RFU SOX15 (11748057_x_at) / Fold change /veh SOX15 (11748057_x_at) / RFU CD79A (11719716_a_at) / Fold change /veh CD79A (11719716_a_at) / RFU HIST1H1D (11736915_at) / Fold change /veh HIST1H1D (11736915_at) / RFU CASKIN2 (11723855_a_at) / Fold change /veh CASKIN2 (11723855_a_at) / RFU LOC730098 (11760151_x_at) / Fold change /veh LOC730098 (11760151_x_at) / RFU OR4N2 (11742367_at) / Fold change /veh OR4N2 (11742367_at) / RFU PRRT2 (11749266_a_at) / Fold change /veh PRRT2 (11749266_a_at) / RFU SNX32 (11753110_a_at) / Fold change /veh SNX32 (11753110_a_at) / RFU CDHR5 (11726645_a_at) / Fold change /veh CDHR5 (11726645_a_at) / RFU RCAN1 (11760418_a_at) / Fold change /veh RCAN1 (11760418_a_at) / RFU FAM167A (11723789_a_at) / Fold change /veh FAM167A (11723789_a_at) / RFU FAM26E (11764081_at) / Fold change /veh FAM26E (11764081_at) / RFU ISYNA1 (11749810_s_at) / Fold change /veh ISYNA1 (11749810_s_at) / RFU ACY1 (11761880_at) / Fold change /veh ACY1 (11761880_at) / RFU 11764098_at / Fold change /veh 11764098_at / RFU SAMD14 (11745864_x_at) / Fold change /veh SAMD14 (11745864_x_at) / RFU NPB (11741838_a_at) / Fold change /veh NPB (11741838_a_at) / RFU TMPRSS6 (11731388_a_at) / Fold change /veh TMPRSS6 (11731388_a_at) / RFU KRTAP10-2 (11738614_at) / Fold change /veh KRTAP10-2 (11738614_at) / RFU ARHGAP8 /// PRR5-ARHGAP8 (11727945_x_at) / Fold change /veh ARHGAP8 /// PRR5-ARHGAP8 (11727945_x_at) / RFU KRTAP5-7 /// NADSYN1 (11734609_at) / Fold change /veh KRTAP5-7 /// NADSYN1 (11734609_at) / RFU RASL12 (11751679_a_at) / Fold change /veh RASL12 (11751679_a_at) / RFU CDKN2B (11736163_a_at) / Fold change /veh CDKN2B (11736163_a_at) / RFU PRF1 (11729649_at) / Fold change /veh PRF1 (11729649_at) / RFU, ZNF638 /// ZNF638-IT1 / Fold change vs veh, ZNF638 /// ZNF638-IT1 / RFU, PANK3 / Fold change vs veh, PANK3 / RFU, SH3YL1 / Fold change vs veh, SH3YL1 / RFU, ZEB2 / Fold change vs veh, ZEB2 / RFU, NRIP1 / Fold change vs veh, NRIP1 / RFU, PTTG1IP / Fold change vs veh, PTTG1IP / RFU, CAPN2 / Fold change vs veh, CAPN2 / RFU, MED14 / Fold change vs veh, MED14 / RFU, SNORA58 / Fold change vs veh, SNORA58 / RFU, C1orf63 / Fold change vs veh, C1orf63 / RFU, LRRFIP1 / Fold change vs veh, LRRFIP1 / RFU, NDUFAF7 / Fold change vs veh, NDUFAF7 / RFU, SLC12A2 / Fold change vs veh, SLC12A2 / RFU, IBTK / Fold change vs veh, IBTK / RFU, ESF1 / Fold change vs veh, ESF1 / Fold change vs veh, TMEM50B / RFU, TAOK1 / Fold change vs veh, TAOK1 / RFU, ACBD3 / Fold change vs veh, ACBD3 / RFU, TMA16 / Fold change vs veh, TMA16 / RFU, RWDD3 / Fold change vs veh, RWDD3 / RFU, BCAT1 / Fold change vs veh, BCAT1 / RFU, EDEM3 / Fold change vs veh, EDEM3 / RFU, TMEM33 / Fold change vs veh, TMEM33 / RFU, WDR75 / Fold change vs veh, WDR75 / RFU, AHCTF1 / Fold change vs veh, AHCTF1 / RFU, TFRC / Fold change vs veh, TFRC / RFU, ZDHHC17 / Fold change vs veh, ZDHHC17 / RFU, NOM1 / Fold change vs veh, NOM1 / RFU, ARL8B / Fold change vs veh, ARL8B / RFU, ZBTB11 / Fold change vs veh, ZBTB11 / RFU, TAMM41 / Fold change vs veh, TAMM41 / RFU, KIAA1704 /// LOC100996395 / Fold change vs veh, KIAA1704 /// LOC100996395 / RFU, ING1 / Fold change vs veh, ING1 / RFU, TRMT61B / Fold change vs veh, TRMT61B / RFU, FUBP3 / Fold change vs veh, FUBP3 / RFU, TP53 / Fold change vs veh, TP53 / RFU, TNKS2 / Fold change vs veh, TNKS2 / RFU, ZFP14 / Fold change vs veh, ZFP14 / RFU, ACTR2 / Fold change vs veh, ACTR2 / RFU, PPP3R1 / Fold change vs veh, PPP3R1 / RFU, PIK3R1 / Fold change vs veh, PIK3R1 / RFU, HNRNPA1 / Fold change vs veh, HNRNPA1 / RFU, RNF170 / Fold change vs veh, RNF170 / RFU, ZNF28 / Fold change vs veh, ZNF28 / RFU, RNGTT / Fold change vs veh, RNGTT / RFU, OGT / Fold change vs veh, OGT / RFU, BRD1 / Fold change vs veh, BRD1 / RFU, MARS / Fold change vs veh, MARS / RFU, ZNF655 / Fold change vs veh, ZNF655 / RFU, FAHD1 / Fold change vs veh, FAHD1 / RFU, BDP1 / Fold change vs veh, BDP1 / RFU, LRRCC1 / Fold change vs veh, LRRCC1 / RFU, ARID1A / Fold change vs veh, ARID1A / RFU, ZNF146 / Fold change vs veh, ZNF146 / RFU, ZNF330 / Fold change vs veh, ZNF330 / RFU, GPN3 / Fold change vs veh, GPN3 / RFU, C9orf123 / Fold change vs veh, C9orf123 / RFU, N4BP2L2 / Fold change vs veh, N4BP2L2 / RFU, ARFIP1 / Fold change vs veh, ARFIP1 / RFU, FAM179B / Fold change vs veh, FAM179B / RFU, BCL10 / Fold change vs veh, BCL10 / RFU, UHRF1BP1L / Fold change vs veh, UHRF1BP1L / RFU, BET1 / Fold change vs veh, BET1 / RFU, CNOT2 / Fold change vs veh, CNOT2 / RFU, ZNF268 / Fold change vs veh, ZNF268 / Fold change vs veh, ZNF507 / RFU, DGCR2 / Fold change vs veh, DGCR2 / RFU, WDSUB1 / Fold change vs veh, WDSUB1 / Fold change vs veh, HSP90B1 /// MIR3652 / RFU, ADSS / Fold change vs veh, ADSS / RFU, GK / Fold change vs veh, GK / RFU, ZNF148 / Fold change vs veh, ZNF148 / RFU, TAF9 / Fold change vs veh, TAF9 / RFU, SLC1A5 / Fold change vs veh, SLC1A5 / RFU, SLMO2 / Fold change vs veh, SLMO2 / RFU, ABCC4 / Fold change vs veh, ABCC4 / RFU, LOC101060439 /// RAP1B / Fold change vs veh, LOC101060439 /// RAP1B / RFU, RFX7 / Fold change vs veh, RFX7 / RFU, GTPBP10 / Fold change vs veh, GTPBP10 / RFU, CNEP1R1 / Fold change vs veh, CNEP1R1 / RFU, BIVM-ERCC5 /// ERCC5 / Fold change vs veh, BIVM-ERCC5 /// ERCC5 / RFU, ILF3 / Fold change vs veh, ILF3 / RFU 11762660_at / Fold change /veh 11762660_at / RFU VCAN (11757783_s_at) / Fold change /veh VCAN (11757783_s_at) / RFU DDX43 (11728927_at) / Fold change /veh DDX43 (11728927_at) / RFU KRT8 (11758188_x_at) / Fold change /veh KRT8 (11758188_x_at) / RFU NKD1 (11759106_at) / Fold change /veh NKD1 (11759106_at) / RFU SRD5A1 (11742802_a_at) / Fold change /veh SRD5A1 (11742802_a_at) / RFU TPSAB1 /// TPSB2 (11721975_s_at) / Fold change /veh TPSAB1 /// TPSB2 (11721975_s_at) / RFU GSTM3 (11746129_a_at) / Fold change /veh GSTM3 (11746129_a_at) / RFU IL23R (11737362_x_at) / Fold change /veh IL23R (11737362_x_at) / RFU TMEM51 (11727254_a_at) / Fold change /veh TMEM51 (11727254_a_at) / RFU PIWIL2 (11732686_x_at) / Fold change /veh PIWIL2 (11732686_x_at) / RFU ORM1 (11744905_x_at) / Fold change /veh ORM1 (11744905_x_at) / RFU CCDC152 (11743942_at) / Fold change /veh CCDC152 (11743942_at) / RFU ECM1 (11717891_a_at) / Fold change /veh ECM1 (11717891_a_at) / RFU IL23R (11748794_a_at) / Fold change /veh IL23R (11748794_a_at) / RFU TNFAIP8L3 (11732012_x_at) / Fold change /veh TNFAIP8L3 (11732012_x_at) / RFU MBOAT4 (11741988_at) / Fold change /veh MBOAT4 (11741988_at) / RFU 11764193_at / Fold change /veh 11764193_at / RFU TMEM53 (11763286_at) / Fold change /veh TMEM53 (11763286_at) / RFU MAGEB2 (11727129_at) / Fold change /veh MAGEB2 (11727129_at) / RFU TMEM200A (11744735_a_at) / Fold change /veh TMEM200A (11744735_a_at) / RFU CCDC152 (11751479_a_at) / Fold change /veh CCDC152 (11751479_a_at) / RFU FAM211A (11726209_a_at) / Fold change /veh FAM211A (11726209_a_at) / RFU RGS16 (11746705_a_at) / Fold change /veh RGS16 (11746705_a_at) / RFU VCAN (11755009_s_at) / Fold change /veh VCAN (11755009_s_at) / RFU RHOB (11743442_s_at) / Fold change /veh RHOB (11743442_s_at) / RFU RGS16 (11720943_a_at) / Fold change /veh RGS16 (11720943_a_at) / RFU RGS16 (11720944_at) / Fold change /veh RGS16 (11720944_at) / RFU, VPS4B / Fold change vs veh, VPS4B / RFU, CREB1 / Fold change vs veh, CREB1 / RFU, DNAJC13 / Fold change vs veh, DNAJC13 / RFU, GNAQ / Fold change vs veh, GNAQ / RFU, CDK5R1 / Fold change vs veh, CDK5R1 / RFU, ZRANB3 / Fold change vs veh, ZRANB3 / RFU, CUL4A / Fold change vs veh, CUL4A / RFU, CCNY / Fold change vs veh, CCNY / RFU, UFL1 / Fold change vs veh, UFL1 / RFU, COG3 / Fold change vs veh, COG3 / RFU, DIAPH2 / Fold change vs veh, DIAPH2 / RFU, SKA2 / Fold change vs veh, SKA2 / RFU, AFF3 / Fold change vs veh, AFF3 / RFU, LMF1 / Fold change vs veh, LMF1 / RFU, IPO11 / Fold change vs veh, IPO11 / RFU, DFFB / Fold change vs veh, DFFB / RFU, FOXP1 / Fold change vs veh, FOXP1 / RFU, CARD8 / Fold change vs veh, CARD8 / RFU, STRN3 / Fold change vs veh, STRN3 / RFU, ADK / Fold change vs veh, ADK / RFU, RASSF2 / Fold change vs veh, RASSF2 / RFU, WIPF1 / Fold change vs veh, WIPF1 / RFU, LARP1B / Fold change vs veh, LARP1B / RFU, RASA1 / Fold change vs veh, RASA1 / RFU, RB1 / Fold change vs veh, RB1 / RFU, PPFIA1 / Fold change vs veh, PPFIA1 / RFU, MAT2A / Fold change vs veh, MAT2A / RFU, CCT5 / Fold change vs veh, CCT5 / RFU, WDR92 / Fold change vs veh, WDR92 / RFU, CUX1 / Fold change vs veh, CUX1 / RFU, TTC7A / Fold change vs veh, TTC7A / RFU, TMEM135 / Fold change vs veh, TMEM135 / RFU, DEPTOR / Fold change vs veh, DEPTOR / RFU, CPM / Fold change vs veh, CPM / RFU, DNAJB6 / Fold change vs veh, DNAJB6 / RFU, CACNA2D3 / Fold change vs veh, CACNA2D3 / RFU, DTX4 / Fold change vs veh, DTX4 / RFU, TFCP2 / Fold change vs veh, TFCP2 / RFU, GMCL1 /// GMCL1P1 / Fold change vs veh, GMCL1 /// GMCL1P1 / RFU, AEBP2 / Fold change vs veh, AEBP2 / RFU, SNHG1 /// SNORD22 /// SNORD25 /// SNORD26 /// SNORD27 /// SNORD28 /// SNORD29 /// SNORD31 / Fold change vs veh, SNHG1 /// SNORD22 /// SNORD25 /// SNORD26 /// SNORD27 /// SNORD28 /// SNORD29 /// SNORD31 / Fold change (Aza/veh), C12orf56 (ProbeSet 11735607_a_at) / Fold change (ACY-1035/veh), C12orf56 (ProbeSet 11735607_a_at) / Fold change (Aza/veh), FGFR1OP (ProbeSet 11751329_s_at) / Fold change (ACY-1035/veh), FGFR1OP (ProbeSet 11751329_s_at) / Fold change (Aza/veh), VPS36 (ProbeSet 11739960_a_at) / Fold change (ACY-1035/veh), VPS36 (ProbeSet 11739960_a_at) / RFU SYPL1 (11715823_x_at) / Fold change /veh SYPL1 (11715823_x_at) / RFU IGFBP7 (11715501_s_at) / Fold change /veh IGFBP7 (11715501_s_at) / RFU REEP3 (11722064_at) / Fold change /veh REEP3 (11722064_at) / RFU IGLL1 (11728026_x_at) / Fold change /veh IGLL1 (11728026_x_at): dose or concentration left out as unconfirmed. Conditions: ProbeSet 11717914_a_at; LIST B.

On to `Nc1ccc(-c2cccs2)cc1NC(=O)c1ccc2c(c1)cc(C1CC1)n2CCN1CCOCC1` [ACY-1035], for which the “Fold change vs veh, BIVM-ERCC5 /// ERCC5” value came out at 1.00.

These data come from paper PMC5218480 (PLoS ONE, 2017).
